One data set in a line: CHI Log D procedure. The class given is physicochemical. Conditions: for CHI Log D: pH 7.4; for chromatographic logD: pH 7.4, CHI Log D.
The target of data set [1] is T1, full-length beta-Catenin (Uniprot ID P35222) (Homo sapiens, UniProt P35222).
T1 construct: 10 nM full-length beta-Catenin (Uniprot ID P35222)
T1 sequence (P35222 1-781): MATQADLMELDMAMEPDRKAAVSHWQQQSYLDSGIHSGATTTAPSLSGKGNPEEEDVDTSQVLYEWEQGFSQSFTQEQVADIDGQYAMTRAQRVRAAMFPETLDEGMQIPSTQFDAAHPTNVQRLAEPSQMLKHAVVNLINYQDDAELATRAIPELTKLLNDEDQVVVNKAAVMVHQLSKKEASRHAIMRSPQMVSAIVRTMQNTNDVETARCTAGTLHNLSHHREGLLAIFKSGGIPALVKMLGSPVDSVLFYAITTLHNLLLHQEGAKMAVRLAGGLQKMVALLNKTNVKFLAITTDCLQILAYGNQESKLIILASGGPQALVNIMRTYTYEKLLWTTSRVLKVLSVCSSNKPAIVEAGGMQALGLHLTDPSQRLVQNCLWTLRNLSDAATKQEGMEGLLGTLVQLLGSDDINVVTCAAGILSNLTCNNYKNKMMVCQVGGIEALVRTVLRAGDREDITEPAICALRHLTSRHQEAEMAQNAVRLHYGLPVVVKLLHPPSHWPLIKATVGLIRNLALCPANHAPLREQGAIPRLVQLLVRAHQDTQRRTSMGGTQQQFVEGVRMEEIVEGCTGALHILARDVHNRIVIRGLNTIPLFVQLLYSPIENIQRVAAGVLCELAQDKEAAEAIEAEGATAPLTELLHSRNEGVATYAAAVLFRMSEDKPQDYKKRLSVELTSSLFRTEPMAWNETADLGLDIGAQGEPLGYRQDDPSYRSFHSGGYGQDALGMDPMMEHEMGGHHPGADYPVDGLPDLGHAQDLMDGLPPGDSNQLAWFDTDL
The data set is described as follows: Fluorescence polarization IC50 (beta-catenin / 5FAM-TCF4 10-53 competition). The data set is classed as binding. (Polarisation of emitted light reports the rotation of a fluorescent probe.)

Setting [2] is: Table E2-1, read-out: beta-Catenin FP IC50.
[3] abbreviates: fluorescence polarization, beta-catenin, read-out: FP EC50.

pIC50: −log10 of the molar value. Where two headings read alike, the source gives them in different places.

The text below walks through data of US20240116985A1, “STAPLED PEPTIDES AND METHODS THEREOF” (priority 2020, published 2024).

The term chromatographic logD denotes a lipophilicity value derived from retention on a column.

Consider `CC(=O)N1CCC[C@]12CC=CCCCC1(CCCC=CCOC(=O)N(C)CCC[C@@](C)(C(=O)N[C@@H](Cc3ccccc3)C(=O)N[C@@H](Cc3c[nH]c4ccccc34)C(=O)N[C@@H](CCC(N)=O)C(N)=O)NC(=O)[C@H](C(C)C)NC(=O)[C@H](Cc3ccccc3)NC(=O)[C@H](C)NC(=O)[C@H](C)NC(=O)[C@H](CC(=O)O)NC(=O)[C@H](CC(=O)O)NC1=O)NC(=O)[C@H](C)NC(=O)[C@H](CC(=O)O)NC2=O` (stereo partly drawn) [I-54, Ac-PL3-Asp-Ala-B5-Asp-Asp-Ala-Ala-Phe-Val-SeN-Phe-Trp-Gln-NH2], for which the “CHI Log D” value in “CHI Log D procedure” is 1.469. The pIC50 in data set [1] (setting [2]) and in data set [1] (setting [3]) was 5.50 each time.
In the data set “CHI Log D procedure”, `CC(=O)N1CCC[C@]12CC=CCCCC1(CCCC=CCOC(=O)N(C)CC[C@@](C)(C(=O)N[C@@H](Cc3ccccc3)C(=O)N[C@@H](Cc3c[nH]c4ccccc34)C(=O)N[C@@H](CCC(N)=O)C(N)=O)NC(=O)[C@H](C(C)C)NC(=O)[C@H](Cc3ccccc3)NC(=O)[C@H](C)NC(=O)[C@H](C)NC(=O)[C@H](CC(=O)O)NC(=O)[C@H](CC(=O)O)NC1=O)NC(=O)[C@H](C)NC(=O)[C@H](CC(=O)O)NC2=O` (stereo partly drawn) [I-55, Ac-PL3-Asp-Ala-B5-Asp-Asp-Ala-Ala-Phe-Val-SdN-Phe-Trp-Gln-NH2] came in with a chromatographic logD of 1.35. The pIC50 in data set [1] (setting [2]) is 5.30.
Take `CC(=O)N[C@@H](Cc1ccccc1)C(=O)N[C@@H](CC(=O)O)C(=O)N[C@@H](C)C(=O)N[C@]1(C)CCCCCCC=CCOC(=O)N2CC[C@@](C(=O)N[C@@H](Cc3ccccc3)C(=O)N[C@@H](Cc3c[nH]c4ccccc34)C(=O)N[C@@H](CCC(N)=O)C(N)=O)(C2)NC(=O)[C@H](C(C)C)NC(=O)[C@H](Cc2ccc(F)cc2)NC(=O)[C@H](C)NC(=O)[C@H](C)NC(=O)[C@H](CC(=O)O)NC(=O)[C@H](CC(=O)O)NC1=O` [I-78, Ac-Phe-Asp-Ala-R8-Asp-Asp-Ala-Ala-4FF-Val-PyrS-Phe-Trp-Gln-NH2]: the chromatographic logD in “CHI Log D procedure” turned out to be 1.24. Further, the pIC50 in data set [1] (setting [2]) is 5.30.
Molecule `CC(=O)N1CCC[C@]12CC=CCCCC1(CCCC=CCCCCCC[C@@](C)(C(=O)N[C@@H](Cc3ccccc3)C(=O)N[C@@H](Cc3c[nH]c4ccccc34)C(=O)N[C@@H](CCC(N)=O)C(N)=O)NC(=O)[C@H](C(C)C)NC(=O)[C@H](Cc3ccccc3)NC(=O)[C@H](C)NC(=O)[C@H](C)NC(=O)[C@H](CCC(=O)O)NC(=O)[C@H](CC(=O)O)NC1=O)NC(=O)[C@H](C)NC(=O)[C@H](CC(=O)O)NC2=O` (stereo partly drawn) [I-123, Ac-PL3-Asp-Ala-B5-Asp-Glu-Ala-Ala-Phe-Val-S8-Phe-Trp-Gln-NH2] displayed a chromatographic logD in the data set “CHI Log D procedure” of 1.98. Also, in data set [1] (setting [2]), the pIC50 is 5.68.
As for `CC(=O)N1CCC[C@]12CC=CCCCC1(CCCC=CCCCCCC[C@@](C)(C(=O)N[C@@H](Cc3ccccc3)C(=O)N[C@@H](Cc3c[nH]c4ccccc34)C(=O)N[C@@H](CCC(N)=O)C(N)=O)NC(=O)[C@H](C(C)C)NC(=O)[C@H](Cc3ccccc3)NC(=O)[C@H](C)NC(=O)[C@H](C)NC(=O)[C@H](CC(N)=O)NC(=O)[C@H](CC(=O)O)NC1=O)NC(=O)[C@H](C)NC(=O)[C@H](CC(=O)O)NC2=O` (stereo partly drawn) [I-125, Ac-PL3-Asp-Ala-B5-Asp-Asn-Ala-Ala-Phe-Val-S8-Phe-Trp-Gln-NH2], the “CHI Log D” value in “CHI Log D procedure” worked out at 2.256. For the same molecule, the pIC50 in data set [1] (setting [2]) and in data set [1] (setting [3]) was 5.51 in each case.
On to `CC(=O)N1CCC[C@]12CC=CCCCC1(CCCC=CCOC(=O)N(C)CCC[C@@](C)(C(=O)N[C@@H](Cc3ccccc3)C(=O)N[C@@H](Cc3c[nH]c4ccccc34)C(=O)N[C@@H](CCC(N)=O)C(N)=O)NC(=O)[C@H](C(C)C)NC(=O)[C@H](Cc3ccccc3)NC(=O)[C@H](C)NC(=O)[C@H](C)NC(=O)[C@H](CCC(=O)O)NC(=O)[C@H](CC(=O)O)NC1=O)NC(=O)[C@H](C)NC(=O)[C@H](CC(=O)O)NC2=O` (stereo partly drawn) [I-131, Ac-PL3-Asp-Ala-B5-Asp-Glu-Ala-Ala-Phe-Val-SeN-Phe-Trp-Gln-NH2], for which, in the data set “CHI Log D procedure”, the “CHI Log D” value was determined as 1.496. The pIC50 in data set [1] (setting [2]) and in data set [1] (setting [3]) was 5.67 in each case.
